Laboratory results taken from the NIST ThermoML archive (doi:10.1016/j.fluid.2016.01.013).
Numbers after ± are expanded uncertainties.

Assay: xn = mol fraction of the nth substance listed
Settings: for kinematic viscosity: Liquid, Surface laser light scattering (SLLS)

C=C(F)C(F)(F)F [2,3,3,3-tetrafluoro-1-propene] + FCC(F)(F)F
Settings | kinematic viscosity [m2/s] | surface tension liquid-gas [mN/m]
293.15 K, x2 = 0.807 | 1.62e-07 ± 1e-08 | 8.25 ± 0.25
293.2 K, x2 = 0.6018 | 1.61e-07 ± 1e-08 | 7.8 ± 0.23
293.22 K, x2 = 0.3196 | 1.49e-07 ± 1e-08 | 7.38 ± 0.22
303.13 K, x2 = 0.6018 | 1.43e-07 ± 9.9e-09 | 6.59 ± 0.2
303.15 K, x2 = 0.807 | 1.47e-07 ± 1e-08 | 6.99 ± 0.21
303.21 K, x2 = 0.3196 | 1.35e-07 ± 9.7e-09 | 6.14 ± 0.18
313.12 K, x2 = 0.3196 | 1.25e-07 ± 9.4e-09 | 4.93 ± 0.15
313.15 K, x2 = 0.6018 | 1.29e-07 ± 9.5e-09 | 5.41 ± 0.16
323.1 K, x2 = 0.3196 | 1.15e-07 ± 9.1e-09 | 3.95 ± 0.12
323.15 K, x2 = 0.807 | 1.26e-07 ± 9.4e-09 | 4.55 ± 0.14
323.16 K, x2 = 0.6018 | 1.22e-07 ± 9.3e-09 | 4.24 ± 0.13
333.12 K, x2 = 0.6018 | 1.12e-07 ± 9.1e-09 | 3.15 ± 0.09
333.15 K, x2 = 0.807 | 1.13e-07 ± 9.1e-09 | 3.41 ± 0.1
333.16 K, x2 = 0.3196 | 1.07e-07 ± 8.9e-09 | 2.87 ± 0.09
343.14 K, x2 = 0.807 | 1.04e-07 ± 8.8e-09 | 2.39 ± 0.07
343.16 K, x2 = 0.6018 | 1e-07 ± 8.7e-09 | 2.11 ± 0.06
343.19 K, x2 = 0.3196 | 9.77e-08 ± 8.7e-09 | 1.88 ± 0.06
353.1 K, x2 = 0.807 | 9.22e-08 ± 8.6e-09 | 1.31 ± 0.04
353.16 K, x2 = 0.3196 | 8.7e-08 ± 8.4e-09 | 1 ± 0.03
353.19 K, x2 = 0.6018 | 8.9e-08 ± 8.5e-09 | 1.17 ± 0.04
358.15 K, x2 = 0.3196 | 8.36e-08 ± 8.4e-09 | 0.6 ± 0.02
363.16 K, x2 = 0.807 | 8.21e-08 ± 8.4e-09 | 0.53 ± 0.02
363.19 K, x2 = 0.6018 | 7.95e-08 ± 8.4e-09 | 0.37 ± 0.01

F/C=C/C(F)(F)F [trans-1,3,3,3-tetrafluoropropene] + FCC(F)(F)F
x2 = 0.4446
Settings | kinematic viscosity [m2/s] | surface tension liquid-gas [mN/m]
293.1 K | 1.78e-07 ± 1.1e-08 | 8.89 ± 0.13
303.16 K | 1.62e-07 ± 1e-08 | 7.58 ± 0.11
313.12 K | 1.45e-07 ± 1e-08 | 6.34 ± 0.1
323.11 K | 1.3e-07 ± 9.5e-09 | 5.16 ± 0.08
333.14 K | 1.21e-07 ± 9.3e-09 | 3.98 ± 0.06
343.14 K | 1.12e-07 ± 9.1e-09 | 2.92 ± 0.04
353.1 K | 1.02e-07 ± 8.8e-09 | 1.92 ± 0.03
363.1 K | 9e-08 ± 8.5e-09 | 1.01 ± 0.02
369.15 K | 8.63e-08 ± 8.4e-09 | 0.53 ± 0.01
